Experiments:
Type in all cases: in vivo
Amaranthus retroflexus [1] = assay: Pre-emergence herbicidal action, AMARE; details: dosage 320 g/ha, scored visually after 3 weeks vs untreated controls
Procedure, shortened: (§1)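 Percent herbicidal activity rated by eye 3 weeks after pre-emergence soil-surface application, compared with untreated pots. Seeds sat under sandy loam; sprays carried 0.2% wetting agent.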

Matricaria inodora = assay: Pre-emergence herbicidal action, MATIN; details: dosage 320 g/ha, scored visually after 3 weeks vs untreated controls
Procedure, shortened: as §1

Cyperus serotinus = assay: Pre-emergence herbicidal action, CYPES; details: dosage 320 g/ha, scored visually after 3 weeks vs untreated controls
Procedure, shortened: as §1

Setaria viridis [2] = assay: Pre-emergence herbicidal action, SETVI; details: dosage 320 g/ha, scored visually after 3 weeks vs untreated controls
Procedure, shortened: as §1

Viola tricolor [3] = assay: Post-emergence herbicidal action, VIOTR; details: 80 g/ha, Table D
Procedure, shortened: (§2)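 Greenhouse-grown weeds in sandy loam, treated at the one-leaf stage 2 to 3 weeks after sowing with WP or EC formulations sprayed as aqueous suspension/emulsion at 600 to […] water plus 0.2% wetting agent. Visual scoring after about 3 weeks versus untreated controls, 0% (like control) to 100% (plants dead).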

Alopecurus myosuroides [4] = assay: Post-emergence herbicidal action, ALOMY; details: 80 g/ha, Table C
Procedure, shortened: as §2

Pharbitis purpureum = assay: Post-emergence herbicidal action, PHBPU; details: 80 g/ha, Table D
Procedure, shortened: as §2

Abutilon theophrasti [5] = assay: Post-emergence herbicidal action, ABUTH; details: 80 g/ha, Table D
Procedure, shortened: as §2

Avena fatua [6] = assay: Pre-emergence herbicidal action, AVEFA; details: dosage 320 g/ha, scored visually after 3 weeks vs untreated controls
Procedure, shortened: as §1

Stellaria media [7] = assay: Pre-emergence herbicidal action, STEME; details: dosage 320 g/ha, scored visually after 3 weeks vs untreated controls
Procedure, shortened: as §1

Setaria viridis [8] = assay: Post-emergence herbicidal action, SETVI; details: 80 g/ha, Table C
Procedure, shortened: as §2

Viola tricolor [9] = assay: Pre-emergence herbicidal action, VIOTR; details: dosage 320 g/ha, scored visually after 3 weeks vs untreated controls
Procedure, shortened: as §1

ECHCG = assay: Post-emergence herbicidal action, ECHCG; details: 80 g/ha, Table C
Procedure, shortened: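 Weed and crop plants grown in sandy loam in the greenhouse, treated at the one-leaf stage 2–3 weeks after sowing. Damage scored visually after about 3 weeks vs untreated controls (0% = control, 100% = dead).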

Abutilon theophrasti [10] = assay: Pre-emergence herbicidal action, ABUTH; details: dosage 320 g/ha, scored visually after 3 weeks vs untreated controls
Procedure, shortened: as §1

Avena fatua [11] = assay: Post-emergence herbicidal action, AVEFA; details: 80 g/ha, Table C
Procedure, shortened: as §2

Stellaria media [12] = assay: Post-emergence herbicidal action, STEME; details: 80 g/ha, Table D
Procedure, shortened: as §2

Amaranthus retroflexus [13] = assay: Post-emergence herbicidal action, AMARE; details: 80 g/ha, Table D
Procedure, shortened: as §2

Alopecurus myosuroides [14] = assay: Pre-emergence herbicidal action, ALOMY; details: dosage 320 g/ha, scored visually after 3 weeks vs untreated controls
Procedure, shortened: as §1

Row | SMILES | herbicidal activity AMARE (Amaranthus retroflexus [1]) [%] | herbicidal activity MATIN (Matricaria inodora) [%] | herbicidal activity CYPES (Cyperus serotinus) [%] | herbicidal activity SETVI (Setaria viridis [2]) [%] | herbicidal activity VIOTR (Viola tricolor [3]) [%] | herbicidal activity ALOMY (Alopecurus myosuroides [4]) [%] | Herbicidal activity PHBPU (Pharbitis purpureum) [%] | herbicidal activity ABUTH (Abutilon theophrasti [5]) [%] | herbicidal activity AVEFA (Avena fatua [6]) [%] | Herbicidal activity STEME (Stellaria media [7]) [%] | herbicidal activity SETVI (Setaria viridis [8]) [%] | herbicidal activity VIOTR (Viola tricolor [9]) [%] | Herbicidal activity ECHCG (ECHCG) [%] | herbicidal activity ABUTH (Abutilon theophrasti [10]) [%] | herbicidal activity AVEFA (Avena fatua [11]) [%] | Herbicidal activity STEME (Stellaria media [12]) [%] | herbicidal activity AMARE (Amaranthus retroflexus [13]) [%] | herbicidal activity ALOMY (Alopecurus myosuroides [14]) [%]
1 | Cn1nnnc1NC(=O)c1ccc(C(F)F)c(S(C)(=O)=O)c1C1CC1 [Example 1-27] | 100 | 100 | 100 | 100 | 100 | 100 | 90 | 100 | 100 | 100 | 100 | 100 | 100 | 100 | 100 | 100 | 100 | 100
2 | CCS(=O)(=O)c1c(C(F)F)ccc(C(=O)Nc2nonc2Cl)c1C [Example 6-6] | 90 | 100 | 80 | 100 | 100 | 80 | 100 | 80 | 90 | 90 | 90 | 100 | 90 | 100 | 80 | 100 | 80 | 90
3 | CCc1c(C(=O)Nc2nnnn2C)ccc(C(F)F)c1S(=O)(=O)CC [Example 1-18] | 100 | 100 | 100 | 100 | 100 | 90 | 90 | 100 | 100 | 100 | 100 | 100 | 90 | 100 | 100 | 100 | 100 | 100
4 | CCn1nnnc1NC(=O)c1ccc(C(F)F)c(S(C)(=O)=O)c1C [Example 2-3] | 100 | 100 | 100 | 100 | 100 | 80 | 100 | 80 | 100 | 90 | 100 | 100 | 90 | 100 | 90 | 100 | 80 | 90
5 | Cn1nnnc1NC(=O)c1ccc(C(F)F)c([S+](C)[O-])c1Br (stereo not drawn) [Example 1-62] | 100 | 100 | 100 | 100 | 100 | 100 | 100 | 100 | 100 | 100 | 100 | 100 | 100 | 100 | 100 | 100 | 100 | 100
6 | CSc1c(C(F)F)ccc(C(=O)Nc2nnc(C)o2)c1Cl [Example 7-47] | 100 | 100 | 80 | 100 | 100 | 80 | 90 | 90 | 90 | 90 | 100 | 100 | 100 | 100 | 100 | 100 | 90 | 90

— patent publication US20230183193A1, “4-DIFLUOROMETHYL BENZOYL AMIDES WITH HERBICIDAL ACTION” (BAYER CROPSCIENCE AKTIENGESELLSCHAFT, priority 2017, published 2023)
